Where only a bound is given, the exact number is not on record here.

Assay [1] concerns highly metastatic Lewis lung cancer cell lines. As to the kind of experiment: MTT growth inhibition, LLC cells. It counts as cell-based, mouse. The settings on record: Mus musculus, Lewis lung carcinoma, 72 h after treatment, read-out: Drug concentration (IC50) at which 50% cancer cells survived.
The test system of another assay is HDAC3. As to the kind of experiment: Western Blotting, HDAC3 level. The settings on record: human liver cancer cells, Lewis lung cancer cells and other cancer cell lines and tumor tissues, read-out: Effective concentration (IC50) for inhibition of HDAC3. It counts as cell-based. An excerpt:
(§1) Antibodies: primary antibodies of VEGFR, EGFR, c-Met, K-Ras, H-Ras, Akt, NF-κB, Cyclin D1, ER-alpha, Dvl-1, Dvl-2, Dvl-3, MMP-9, MMP2, β-catenin, Bcl-2, Bax, p53, p21, E-cadherin and Caspase3 protein, purchased from American Cell Signaling Technology Company and Santa Cruz Technology Company; and H3 acetylation, H4 acetylation and HDAC (HDAC3, HDAC4 and the like) Antibody Sample Kits, purchased from Cell Signaling Technology Company of the U.S.
(§2) (3) polyacrylamide gel electrophoresis (SDS-PAGE): an equal amount of protein lysate sample was used to separate protein, film transfer, and blocking, treated with appropriate primary antibodies and secondary antibodies in sequence, and the film was washed, then the color was developed with ECL kit, and a blot protein band was detected by exposure of an X-ray film; and a Gel-Pro Analyzer was used for quantitative analysis of gray degree, optical density value of the control group and the drug treatment group in various concentration were respectively compared with that of internal reference, the obtained ratios were respectively compared with the control group, and the protein expression level was semi-quantified.

Assay [2] concerns human oral epidermoid cancer cells KBV200. As to the kind of experiment: MTT growth inhibition, KBV200 cells. It counts as cell-based. The settings on record: 72 h after treatment, read-out: Drug concentration (IC50) at which 50% cancer cells survived.
A further assay has as its system Akt. As to the kind of experiment: Western Blotting, Akt level. The format is cell-based. The settings on record: human liver cancer cells, Lewis lung cancer cells and other cancer cell lines and tumor tissues, read-out: Effective concentration (IC50) for inhibition of Akt.
Source text: as §1, §2
On the technique in general: A western blot detects proteins with antibodies after separation by electrophoresis.

The test system of assay [3] is human breast cancer cells MDA-MB231 xenograft. Description: In-vivo growth of MDA-MB231 xenografts in nude mice. Also noted: species or system BALB/c nude mice. To be noted: Mus musculus, MDA-MB-231, ip, MB-231 xenograft, vs DMSO solvent control, read-out: Curative effect (inhibition rate %) of tumor weight; for inhibition in vivo at 60 mg/kg: 60 mg/kg intraperitoneal once a day; for inhibition in vivo at 90 mg/kg: 90 mg/kg intraperitoneal once a day. As to the method:
RPMI1640 and DMEM culture solutions: Hyclone Company; inactivated fetal bovine serum: Hyclone Company, preserved at −20° C.; trypsin: Amersco Company; and 0.4% trypan blue: Sigma Company;
(3) Observation of growth of tumors in nude mice: the activities (including food intake, traits of urine and stool, mental state and the like) of the nude mice and the tumor growth time and growth situation of the transplanted tumors were observed every day, the body weight and the size of the tumors were measured once every 2-3 days. The long diameter a and the short diameter b (mm) of each tumor were measured by a vernier caliper to calculate the volume, wherein the volume V=π1/2·ab^2 (mm^3);
(4) sacrifice of animals: the mice were anesthetized and photoed after treatment experiments; the nude mice were sacrificed by breaking neck, the tumor tissues were stripped under sterile conditions and the weight of the tumors was weighed; and the effects of the drugs on pathology and toxicity of the various organs and tissues were detected.

For another assay, the system named is p53. As to the kind of experiment: Western Blotting, increase of p53 level. The format is cell-based. To be noted: liver cancer cells, Lewis lung cancer cells and other cancer cell lines and tumor tissue protein lysates, 48 h treatment, read-out: Effective concentration to increase p53 by 50%.
Source text: as §1, §2

For the next assay, the system named is human neuroma cells D54. Description: MTT growth inhibition, D54 cells. It counts as cell-based. To be noted: Homo sapiens, 72 h after treatment, read-out: Drug concentration (IC50) at which 50% cancer cells survived.
The subject of assay [4] is human liver cancer cells SMMC7721. As to the kind of experiment: MTT growth inhibition, SMMC7721 cells. The format is cell-based. To be noted: SMMC-7721, S-7721 (SMMC7721), 72 h after treatment, read-out: Drug concentration (IC50) at which 50% cancer cells survived.
The next assay concerns the target T1, EZH2 (Homo sapiens, UniProt Q15910).
T1 construct: the EZH2 enzyme was replaced with tumor protein extracts in each group; from tissue; host or cells: human tumour xenografts excised from treated nude mice
As to the kind of experiment: EZH2 enzyme activity in protein extracts of human tumor xenografts of treated mice (EZH2 Assay Kit). It counts as in vivo. To be noted: tumors excised 6 h after medication, SAHA 25 mg/kg.

Assay [5] concerns Caski human cervical cancer cells. As to the kind of experiment: MTT growth inhibition, Caski cells. It counts as cell-based. To be noted: Ca-Ski, 72 h after treatment, read-out: Drug concentration (IC50) at which 50% cancer cells survived.

T1 sequence (Q15910 whole entry): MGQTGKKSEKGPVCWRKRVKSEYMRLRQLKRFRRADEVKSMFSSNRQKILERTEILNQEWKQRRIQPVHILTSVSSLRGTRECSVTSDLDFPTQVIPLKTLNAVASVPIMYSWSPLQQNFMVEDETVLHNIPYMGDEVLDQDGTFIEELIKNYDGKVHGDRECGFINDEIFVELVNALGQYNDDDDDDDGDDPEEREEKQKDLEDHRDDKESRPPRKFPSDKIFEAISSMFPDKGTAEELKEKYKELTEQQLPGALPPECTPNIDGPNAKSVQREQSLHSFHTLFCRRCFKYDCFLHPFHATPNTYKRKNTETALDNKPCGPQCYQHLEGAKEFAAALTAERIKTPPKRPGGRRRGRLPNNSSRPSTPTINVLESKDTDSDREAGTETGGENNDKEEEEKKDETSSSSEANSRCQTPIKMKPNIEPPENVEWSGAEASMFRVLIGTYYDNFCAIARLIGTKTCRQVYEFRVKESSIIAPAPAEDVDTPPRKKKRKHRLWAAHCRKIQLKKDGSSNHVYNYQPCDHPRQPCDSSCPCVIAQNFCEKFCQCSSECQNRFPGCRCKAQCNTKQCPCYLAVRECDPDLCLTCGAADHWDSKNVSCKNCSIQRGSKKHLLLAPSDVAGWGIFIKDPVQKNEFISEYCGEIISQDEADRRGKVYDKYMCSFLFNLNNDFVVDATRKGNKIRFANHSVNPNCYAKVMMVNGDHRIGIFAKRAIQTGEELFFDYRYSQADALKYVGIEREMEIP
T1 sequence (O75530 whole entry partner): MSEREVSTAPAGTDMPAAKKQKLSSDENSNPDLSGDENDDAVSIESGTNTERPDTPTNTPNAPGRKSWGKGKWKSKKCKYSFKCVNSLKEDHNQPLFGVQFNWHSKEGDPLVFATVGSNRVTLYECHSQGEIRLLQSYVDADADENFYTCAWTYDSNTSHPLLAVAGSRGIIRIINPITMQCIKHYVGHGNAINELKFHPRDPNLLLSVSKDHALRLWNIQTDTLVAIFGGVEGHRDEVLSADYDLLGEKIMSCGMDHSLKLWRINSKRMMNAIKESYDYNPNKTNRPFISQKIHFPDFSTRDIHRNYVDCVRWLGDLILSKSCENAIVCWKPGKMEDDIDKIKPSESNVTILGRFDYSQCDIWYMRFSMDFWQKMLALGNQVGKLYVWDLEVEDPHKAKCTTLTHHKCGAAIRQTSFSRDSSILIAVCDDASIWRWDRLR
T1 sequence (Q15022 whole entry partner): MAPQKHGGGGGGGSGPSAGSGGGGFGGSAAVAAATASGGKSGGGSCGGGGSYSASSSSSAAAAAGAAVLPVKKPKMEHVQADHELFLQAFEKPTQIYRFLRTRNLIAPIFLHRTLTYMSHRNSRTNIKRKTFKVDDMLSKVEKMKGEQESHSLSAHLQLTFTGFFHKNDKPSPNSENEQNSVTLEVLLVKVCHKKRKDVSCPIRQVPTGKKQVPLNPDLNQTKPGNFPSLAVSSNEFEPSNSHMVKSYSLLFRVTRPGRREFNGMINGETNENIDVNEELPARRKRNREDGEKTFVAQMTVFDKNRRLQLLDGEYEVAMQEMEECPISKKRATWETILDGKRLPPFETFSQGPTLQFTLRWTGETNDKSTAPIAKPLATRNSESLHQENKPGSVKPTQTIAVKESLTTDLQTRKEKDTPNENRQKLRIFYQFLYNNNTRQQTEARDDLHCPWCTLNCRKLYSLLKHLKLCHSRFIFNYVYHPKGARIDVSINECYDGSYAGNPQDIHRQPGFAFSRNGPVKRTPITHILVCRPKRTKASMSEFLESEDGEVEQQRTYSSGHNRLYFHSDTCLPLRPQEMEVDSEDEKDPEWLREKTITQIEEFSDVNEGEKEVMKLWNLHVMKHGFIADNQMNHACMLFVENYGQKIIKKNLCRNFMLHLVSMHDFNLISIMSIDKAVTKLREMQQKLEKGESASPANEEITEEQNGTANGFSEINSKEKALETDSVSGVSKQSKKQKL

Take `CCNC(=O)CC[C@@H](NC(=O)c1cc2cc(Cl)ccc2oc1=O)C(=O)OCC` [Compound Ic, (R)-2-(6-CI-2-oxo-2H-benzopyran-3-carboxamido)-5-ethylamino-5-oxo-pentanoic acid ethyl ester]: the IC50 in [1] is 131 µM; in the assay on HDAC3, less than 65 µM; in assay [2] it was 97 µM; in the assay with Akt, less than 100 µM; in the assay with human neuroma cells D54, 98 µM; in assay [4], 75 µM. Further, in assay [5], the IC50 came out at 86 µM. The inhibition in vivo at 60 mg/kg in [3] was 54.1%. Moreover, in assay [3], the inhibition in vivo at 90 mg/kg worked out at 65.5%. Also, the EC50 with p53 is less than 100 µM. Besides, the “decrease of EZH2 enzyme activity/inhibition rate” value at EZH2 (A549 tumor grown in vivo) is listed as 61%*(A549)-; on EZH2 (MCF7 tumor grown in vivo), 56%*(MCF7); on EZH2 (MDA-MB231 tumor grown in vivo), 58%*(MDA-MB231); on EZH2 (SMMC7721 tumor grown in vivo), 59%*(SMMC7721);.
Turning to `CCNC(=O)CC[C@@H](NC(=O)c1cc2cc(Br)ccc2oc1=O)C(=O)OCC` [Compound Id, (R)-2-(6-Br-2-oxo-2H-benzopyran-3-carboxamido)-5-ethylamino-5-oxo-pentanoic acid ethyl ester], the IC50 in assay [1] was 116 µM; in the assay with HDAC3 it was less than 65 µM; in assay [2] it was 112 µM; with Akt, less than 100 µM; with human neuroma cells D54, 92 µM; in assay [4], 65 µM. The IC50 in assay [5] was found to be 101 µM. The inhibition in vivo at 60 mg/kg in assay [3] was 53.1%. Besides, the inhibition in vivo at 90 mg/kg in [3] was found to be 66.7%. Further, the EC50 in the assay on p53 is less than 100 µM. For the same compound, the “decrease of EZH2 enzyme activity/inhibition rate” value on EZH2 (A549 tumor grown in vivo) was 61%*(A549)-; on EZH2 (MCF7 tumor grown in vivo), 56%*(MCF7); on EZH2 (MDA-MB231 tumor grown in vivo), 58%*(MDA-MB231); on EZH2 (SMMC7721 tumor grown in vivo) it was 59%*(SMMC7721);.
For `CCNC(=O)CC[C@@H](NC(=O)c1cc2cc(Cl)cc(Cl)c2oc1=O)C(=O)OCC` [Compound Ig, (R)-2-(6,8-dichloro-2-oxo-2H-benzopyran-3-carboxamido)-5-ethylamino-5-oxo-pentanoic ethyl ester], the IC50 in assay [1] is 36 µM; in the assay with HDAC3, less than 65 µM; in [2], 84 µM; in the assay on Akt it was less than 70 µM; in the assay with human neuroma cells D54, 79 µM; in assay [4], 78 µM. In addition, the IC50 in assay [5] is 36 µM. Further, the inhibition in vivo at 60 mg/kg in assay [3] was determined as 59.1%. Further, the inhibition in vivo at 90 mg/kg in assay [3] is 72.1%. Further, the EC50 in the assay with p53 was less than 70 µM. The “decrease of EZH2 enzyme activity/inhibition rate” value is on record as 57%*(A549)- at EZH2 (A549 tumor grown in vivo), 65%*(MCF7) on EZH2 (MCF7 tumor grown in vivo), 61%*(MDA-MB231) at EZH2 (MDA-MB231 tumor grown in vivo) and 58%*(SMMC7721); at EZH2 (SMMC7721 tumor grown in vivo).
Turning to `CCNC(=O)CC[C@@H](NC(=O)c1cc2cc(Br)cc(Br)c2oc1=O)C(=O)OCC` [Compound Ih, (R)-2-(6,8-dibromo-2-oxo-2H-benzopyran-3-carboxamido)-5-ethylamino-5-oxo-pentanoic ethyl ester], the IC50 is 53 µM in assay [1]; less than 65 µM in the assay on HDAC3; 72 µM in assay [2]; less than 70 µM in the assay on Akt; 87 µM in the assay with human neuroma cells D54; 86 µM in assay [4]. Besides, the IC50 in [5] was 53 µM. Besides, in assay [3], the inhibition in vivo at 60 mg/kg was found to be 55.1%. In addition, the inhibition in vivo at 90 mg/kg in assay [3] turned out to be 75.1%. For the same compound, in the assay with p53, the EC50 is less than 70 µM. Also, the “decrease of EZH2 enzyme activity/inhibition rate” value is reported as 55%*(A549)- at EZH2 (A549 tumor grown in vivo), 61%*(MCF7) on EZH2 (MCF7 tumor grown in vivo), 59%*(MDA-MB231) at EZH2 (MDA-MB231 tumor grown in vivo) and 56%*(SMMC7721); at EZH2 (SMMC7721 tumor grown in vivo).

(Values after patent publication US9518038B2, “Condensation product of theanine derivative and carboxylic acid coumarin derivative, its intermediate, preparation method and use thereof” (SHANDONG YINGDONG YINGHAO BIOTECHNOLOGY, INC., priority 2012, dated 2016).)
